Measured values reported in article PMC5355877, “The development of novel LTA4H modulators to selectively target LTB4 generation” (Scientific Reports, 2017).
“Also recorded” adds a separate entry of the source. Where two headings read alike, the source gives them in different places.

How the values were obtained:
[1] = target: T1, LTA4H epoxide hydrolase activity (LTB4 generation) (Mus musculus, UniProt P24527); assay: LTA4H epoxide hydrolase activity: LTB4 generation by A23187-treated murine bone marrow neutrophils (EIA); type: cell-based
T1 construct: endogenous in cells; host or cells: murine bone marrow neutrophils
T1 sequence (P24527 1-611): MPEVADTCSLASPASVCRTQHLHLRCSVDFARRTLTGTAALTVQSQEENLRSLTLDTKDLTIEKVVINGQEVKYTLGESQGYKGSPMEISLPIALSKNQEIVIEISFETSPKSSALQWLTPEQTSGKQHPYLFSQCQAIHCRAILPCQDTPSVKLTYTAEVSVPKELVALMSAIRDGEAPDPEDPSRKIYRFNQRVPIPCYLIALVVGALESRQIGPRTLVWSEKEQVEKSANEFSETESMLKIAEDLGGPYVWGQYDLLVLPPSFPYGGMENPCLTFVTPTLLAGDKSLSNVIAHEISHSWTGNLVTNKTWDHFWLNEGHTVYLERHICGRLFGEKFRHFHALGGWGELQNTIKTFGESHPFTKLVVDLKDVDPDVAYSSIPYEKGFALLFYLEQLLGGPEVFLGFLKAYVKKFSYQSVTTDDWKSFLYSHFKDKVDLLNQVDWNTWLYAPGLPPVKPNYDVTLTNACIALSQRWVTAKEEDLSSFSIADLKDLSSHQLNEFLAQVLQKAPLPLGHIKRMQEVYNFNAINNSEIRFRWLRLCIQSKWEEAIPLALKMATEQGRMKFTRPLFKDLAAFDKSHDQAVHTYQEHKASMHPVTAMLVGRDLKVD
Procedure: To isolate murine bone marrow neutrophils, the femur and the tibia from both hind legs were removed and freed of soft tissue attachments, and the extreme distal tip of each extremity cut off. HBSS containing 15 mM EDTA and 30 mM HEPES was forced through the bone with a syringe. After dispersing cell clumps and passage through a […] sieve (BD labware, New Jersey), red blood cells were lysed by resuspending pellets in ACK buffer (for 3 minutes at room temperature) before centrifugation (800 × g, 5 min) and washing with HBSS. The cell suspension was centrifuged (800 × g, 5 min, 4 °C) and resuspended in RPMI.
1% DMSO was used as a control. Cells were incubated for 20 minutes at 37 °C, and the reaction was terminated by centrifugation (600 × g, 5 min, 4 °C). Supernatants were removed and stored at −80 °C for subsequent LTB4 analysis. The concentration of LTB4 generated in the epoxide hydrolase activity assay was assayed using an EIA, according to manufacturer’s directions (R&D systems, Minneapolis, MN). Test compounds were assayed in a blinded manner by an investigator during determination of effect on LTA4H epoxide hydrolase activity.

[2] = target: T2, recombinant human LTA4H (aminopeptidase, PGP substrate) (Homo sapiens, UniProt P09960); assay: LTA4H aminopeptidase activity: PGP degradation by recombinant human LTA4H; type: biochemical
T2 construct: purchased Cayman Chemicals
T2 sequence (P09960 1-611): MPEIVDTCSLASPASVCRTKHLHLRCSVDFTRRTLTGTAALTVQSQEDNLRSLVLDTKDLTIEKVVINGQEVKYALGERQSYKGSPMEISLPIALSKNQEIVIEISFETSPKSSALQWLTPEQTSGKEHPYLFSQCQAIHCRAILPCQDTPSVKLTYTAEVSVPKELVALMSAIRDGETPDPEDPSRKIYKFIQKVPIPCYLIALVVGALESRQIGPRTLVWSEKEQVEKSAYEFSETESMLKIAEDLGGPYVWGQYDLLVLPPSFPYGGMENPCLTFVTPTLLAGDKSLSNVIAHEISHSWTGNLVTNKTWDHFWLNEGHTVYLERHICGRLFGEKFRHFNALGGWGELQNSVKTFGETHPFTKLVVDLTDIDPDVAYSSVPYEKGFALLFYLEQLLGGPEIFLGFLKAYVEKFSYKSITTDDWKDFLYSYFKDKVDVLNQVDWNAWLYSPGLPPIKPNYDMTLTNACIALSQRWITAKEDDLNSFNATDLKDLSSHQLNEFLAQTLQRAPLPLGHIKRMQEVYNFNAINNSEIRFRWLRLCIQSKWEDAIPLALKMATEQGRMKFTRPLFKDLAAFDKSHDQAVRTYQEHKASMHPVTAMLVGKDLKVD
Procedure: (§1) For peptide quantification in serum, PGP and AcPGP were measured using a MDS Sciex API-4000 spectrometer (Applied Biosystems, Foster City, CA) equipped with a Shimadzu HPLC (Columbia, MD). For peptide quantification from degradation experiments, PGP and AcPGP were measured using a Thermo Accela Pump and Autosampler coupled to a Thermo TSQ Quantum Access. […] Peak area was measured, and PGP/AcPGP peptide concentrations were calculated using a relative standard curve method as previously described.
(§2) Mouse serum (diluted 1/10 in PBS) or recombinant human LTA4H (0.1 μg/ml; Cayman Chemicals, Michigan, USA) were incubated with 0.4 mM PGP at 37 °C in 5% CO2 for varying periods of time. Concentrations of PGP remaining were subsequently quantified by ESI-LC/MS/MS (as discussed above) by comparison with PGP standards. The percentage of peptide degraded was determined relative to control samples of 0.4 mM PGP alone. PGP degradation was also assessed by measurement of free proline released and its ensuing reaction with Ninhydrin (as discussed below). Test compounds were assayed in a blinded manner by an investigator during determination of the effect on LTA4H aminopeptidase activity.
To assess free proline liberated, aliquots from PGP degradation experiments were diluted 1 in 10 in PBS (to a final volume of 250 μl). Glacial acetic acid (250 μl) was then added, followed by 250 μl of ninhydrin solution (25 mg/ml in acetic acid/6 M phosphoric acid; heated at 70 °C to dissolve). The reaction mixture was heated at 100 °C for 60 minutes, allowed to cool to room temperature and the proline containing fraction extracted with 500 μl of toluene and optical density measured at 520 nm.

[3] = target: T3, LTA4H aminopeptidase activity (Ala-p-nitroanilide substrate) (Homo sapiens, UniProt P09960); parameters: method as in PMID 21983441; settings: read-out: AC50 for augmenting aminopeptidase activity; cited from earlier work
T3 sequence (P09960 1-611): T2 sequence (P09960 1-611)

[4] = target: T3, LTA4H aminopeptidase activity (Ala-p-nitroanilide substrate); assay: LTA4H aminopeptidase activity versus Ala-p-nitroanilide substrate; type: biochemical; settings: in our hands
[5] = Human liver microsome stability; type: in vitro ADME; settings: liver microsomes
Text: (§3) ARM1 (4-(4-benzylphenyl)-1,3-thiazole-2-amine), compound 11 (7-hydroxy-3-(4-hydroxyphenyl)-4H-chromen-4-one) and compound 13 (7-hydroxy-3-phenyl-4H-chromen-4-one) were all purchased from VitasMLab (Kowloon, Hong Kong). […] All other compounds were custom synthesized by Peakdale Molecular as described in Supplementary Information. ADMET (absorption, distribution, metabolism, and excretion – toxicity) studies were also outsourced to Peakdale Molecular.

[6] = Mouse liver microsome stability; type: in vitro ADME; settings: liver microsomes
Text: as §3

[7] = Mouse plasma protein binding; type: in vitro ADME
Text: as §3

[8] = Human plasma protein binding; type: in vitro ADME
Text: as §3

logD pH7.4 = type: physicochemical; settings: pH 7.4; read-out: logDpH7.4
Text: as §3

[9] = test system: serum aminopeptidase PGP-degrading activity; assay: Serum aminopeptidase PGP-degrading activity after oral dosing of mice; type: in vivo; settings: 10 mg/kg orally, naïve female BALB/c mice, blood 4 h after dosing
Procedure: (§4) Blood was obtained from mice 4 h after oral dosing and downstream analysis performed blinded by an independent researcher. […] The reaction was terminated by centrifugation (600 × g, 5 min, 4 °C). Supernatants were analyzed for LTB4 by EIA (see below). To assess inhibition of aminopeptidase activity, PGP degrading capacity of serum was assessed as detailed below. Furthermore, absolute concentrations of PGP in serum was determined as detailed below.
as §2

serum PGP = assay: Absolute serum PGP concentrations after oral dosing of mice; type: in vivo; settings: 10 mg/kg orally, naïve female BALB/c mice, blood 4 h after dosing
Procedure: as §4, §1

LTB4 generation = settings: oral administration to naïve mice; cited from earlier work
[10] = LTB4 generation, murine neutrophils, Table 2, read-out: Epoxide Hydrolase IC50 ± SEM
[11] = PGP degradation, Table 2, read-out: Aminopeptidase IC50 ± SEM
[12] = LTB4 generation, murine neutrophils, Table 1, read-out: Epoxide Hydrolase IC50 ± SEM
[13] = LTB4 generation, murine neutrophils, Table 3, read-out: Epoxide Hydrolase IC50 ± SEM
[14] = PGP degradation, Table 3, read-out: Aminopeptidase IC50 ± SEM

Oc1ccc(/C=C\c2cc(O)cc(O)c2)cc1 [Compound 2, cis-Resveratrol]
IC50 [1, 10]: 14.3 ± 2.1 µM

COc1ccc(/C=C/c2cc(OC)cc(OC)c2)cc1 [Compound 3, trans-trismethoxy Resveratrol]
IC50 [1, 10]: 41.2 ± 5.5 µM
IC50 [2, 11]: 68.8 ± 9.9 µM

CC(=O)Oc1ccc(/C=C/c2cc(OC(C)=O)cc(OC(C)=O)c2)cc1 [Compound 4, 5-[(1E)-2-[4-(acetyloxy)phenyl]ethenyl]-1,3-Benzenediol-1,3-diacetate]
IC50 [1]: 38.6 ± 5.9 µM
IC50 [2, 11]: > 100 µM

COc1ccc(Cc2ccccc2)cc1 [Compound 4-MDM, 4-Methoxydiphenylmethane, reference compound]
AC50 [3]: 50 µM
IC50 [1, 12]: 48.9 µM
effect on aminopeptidase activity versus Ala-p-nitroanilide substrate [4]: did promote aminopeptidase activity
IC50 ([2]; PGP degradation, recombinant LTA4H, Table 1, read-out: Aminopeptidase IC50 ± SEM): 75.2 µM
effect on aminopeptidase activity with physiological substrate PGP ([2]; PGP substrate): modest inhibition; also recorded: failed to augment PGP degradation

COc1cc(O)cc(/C=C/c2ccc(O)cc2)c1 [Compound 5, 3-[(1E)-2-(4-hydroxyphenyl)ethenyl]-5-methoxyphenol hydrate]
IC50 [1, 10]: 3.9 ± 0.4 µM
IC50 [2]: 99.5 ± 22.6 µM

COc1cc(O)cc(CCc2ccc(O)cc2)c1 [Compound 6]
IC50 [1, 10]: 6.4 ± 0.7 µM
IC50 [2, 11]: > 100 µM

CCOc1cc(O)cc(CCc2ccc(O)cc2)c1 [Compound 7]
IC50 [1, 10]: 3.2 ± 0.7 µM
IC50 [2, 11]: > 100 µM

COc1cc(O)cc(CCc2cccc(O)c2)c1 [Compound 8]
IC50 [1, 10]: 1.7 ± 0.25 µM
IC50 [2, 11]: > 100 µM

O=C(Cc1ccc(O)cc1)c1ccc(O)cc1O [Compound 10, 1-(2,4-Dihydroxyphenyl)-2-(4-hydroxyphenyl)ethanone]
IC50 [1, 13]: 34.2 ± 4.7 µM
IC50 [2, 14]: > 100 µM

O=c1c(-c2ccc(O)cc2)coc2c(O)c(O)ccc12 [Compound 12, 7,8,4′-trihydroxyisoflavone]
microsomal CLint [5]: < 5 µL/min/mg
half-life ([5]; read-out: Human liver microsomes t1/2): > 2.32 h
microsomal CLint [6]: 8.9 ± 0.7 µL/min/mg
half-life ([6]; read-out: Mouse liver microsomes t1/2): 1.3 ± 0.102 h
fraction unbound [7]: 0.0723
fraction unbound [8]: 0.0326
logD (logD pH7.4): 1.24 ± 0.06
IC50 [1, 13]: 7.3 ± 0.8 µM
selectivity for hydrolase over peptidase inhibition ([1]; ratio of aminopeptidase to epoxide hydrolase IC50): > 8 fold
IC50 [2, 14]: 62.7 ± 13.3 µM

O=c1c(-c2ccccc2)coc2cc(O)ccc12 [Compound 13, 7-hydroxy-3-phenyl-4H-chromen-4-one]
IC50 [1, 13]: 48.2 ± 14.6 µM
IC50 [2, 14]: > 100 µM

O=c1c(-c2ccc(O)cc2)coc2c3c(ccc12)OCO3 [Compound 14]
IC50 [1, 13]: 20.6 ± 2.4 µM
IC50 [2, 14]: 20.6 ± 3.3 µM

Cc1ccc2c(=O)c(-c3ccc(O)cc3)coc2c1O [Compound 15]
IC50 [1, 13]: 1.2 ± 0.21 µM
IC50 [2, 14]: 69.2 ± 10.9 µM

O=C(O)CCCN1CCC[C@H]1COc1ccc(Oc2ccc(Cl)cc2)cc1 [DG-051, 4-[(2S)-2-{[4-(4-chlorophenoxy)phenoxy]methyl}-1-pyrrolidinyl]butanoic acid, reference compound]
IC50 [1, 12]: 0.68 ± 0.01 µM

CC(=O)NC1CC2CCC(C1)N2Cc1ccc(Oc2nc3ncccc3s2)cc1 (stereo not drawn) [JNJ-40929837]
serum aminopeptidase PGP-degrading activity [9]: potently abrogates; also recorded: potently inhibited
serum PGP (serum PGP): serum accumulation of PGP
IC50 [1]: 0.009 ± 9e-05 µM
IC50 [2]: 0.0094 ± 0.0013 µM

CN(CCCOc1ccc(Cc2ccccc2)cc1)CCC(=O)O.Cl [SC57461A, 3-[methyl[3-[4-(phenylmethyl)phenoxy]propyl]amino]propanoic acid HCl]
inhibition of LTB4 generation in ex vivo whole blood assay (LTB4 generation): potent inhibition
serum aminopeptidase PGP-degrading activity [9]: potently abrogates; also recorded: potently inhibited
serum PGP (serum PGP): serum accumulation of PGP
IC50 [1, 12]: 0.11 ± 0.0235 µM
